Measured values taken from PubChem BioAssay AID256 (DTP/NCI, 2004).
Values joined by “and” are separate entries in the source; they are usually repeats but may differ in a detail not shown here. Identical values can stand only once. Toxic doses and inconclusive results are not listed. Rule for the calls: active = survival T/C of 150% or more; inactive = T/C below 125% in these data.

Test system: CD2F1 mice, L1210 leukemia ip, survival T/C
Assay: NCI In Vivo Anticancer Drug Screen. Data for tumor model L1210 Leukemia (intraperitoneal) in CD2F1 (CDF1) mice
Settings: endpoint: mean survival time, higher = longer survival
How it was run: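 Ratio T/C, where T is the treated-group value and C the vehicle-dosed control value, from mice implanted with a transplantable tumor.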

[1] = dose: 75.0 mg/kg/injection, schedule: Q01DX001 (ip), vehicle: saline
[2] = dose: 150.0 mg/kg/injection, schedule: Q01DX001 (ip), vehicle: saline
[3] = dose: 100.0 mg/kg/injection, schedule: Q04DX003 (ip), vehicle: saline
[4] = dose: 200.0 mg/kg/injection, schedule: Q04DX003 (ip), vehicle: saline
[5] = dose: 400.0 mg/kg/injection, schedule: Q04DX003 (ip), vehicle: saline
[6] = dose: 100.0 mg/kg/injection, schedule: Q01DX001 (ip), vehicle: saline with Tween-80
[7] = dose: 200.0 mg/kg/injection, schedule: Q01DX001 (ip), vehicle: saline with Tween-80
[8] = dose: 400.0 mg/kg/injection, schedule: Q01DX001 (ip), vehicle: saline with Tween-80
[9] = dose: 200.0 mg/kg/injection, schedule: Q01DX009 (ip), vehicle: saline
[10] = dose: 100.0 mg/kg/injection, schedule: Q04DX003 (ip), vehicle: saline with Tween-80
[11] = dose: 200.0 mg/kg/injection, schedule: Q04DX003 (ip), vehicle: saline with Tween-80
[12] = dose: 400.0 mg/kg/injection, schedule: Q04DX003 (ip), vehicle: saline with Tween-80
[13] = dose: 100.0 mg/kg/injection, schedule: Q01DX009 (ip), vehicle: saline with Tween-80
[14] = dose: 200.0 mg/kg/injection, schedule: Q01DX009 (ip), vehicle: saline with Tween-80
[15] = dose: 400.0 mg/kg/injection, schedule: Q01DX009 (ip), vehicle: saline with Tween-80
[16] = dose: 100.0 mg/kg/injection, schedule: Q01DX001 (ip), vehicle: saline
[17] = dose: 200.0 mg/kg/injection, schedule: Q01DX001 (ip), vehicle: saline
[18] = dose: 400.0 mg/kg/injection, schedule: Q01DX001 (ip), vehicle: saline
[19] = dose: 25.0 mg/kg/injection, schedule: Q01DX009 (ip), vehicle: saline with Tween-80
[20] = dose: 50.0 mg/kg/injection, schedule: Q01DX009 (ip), vehicle: saline with Tween-80
[21] = dose: 100.0 mg/kg/injection, schedule: Q01DX009 (ip), vehicle: saline
[22] = dose: 400.0 mg/kg/injection, schedule: Q01DX009 (ip), vehicle: saline
[23] = dose: 25.0 mg/kg/injection, schedule: Q04DX003 (ip), vehicle: saline with Tween-80
[24] = dose: 50.0 mg/kg/injection, schedule: Q04DX003 (ip), vehicle: saline with Tween-80

Measured: T/C

CCOC(=O)COC(=O)CN1C(=O)c2ccccc2C1=O
inactive: dose: 50.0 mg/kg/injection, schedule: Q01DX001 (ip), vehicle: water 93 % of control | dose: 100.0 mg/kg/injection, schedule: Q01DX001 (ip), vehicle: water 98 % of control | dose: 200.0 mg/kg/injection, schedule: Q01DX001 (ip), vehicle: water 104 % of control | dose: 400.0 mg/kg/injection, schedule: Q01DX001 (ip), vehicle: water 94 % of control

NCCCCOc1ccc([N+](=O)[O-])cc1Cl
inactive: [1] 100 % of control | [2] 102 % of control

CC1=CCC(O)(C(C)C)CC1 (configuration not stated)
inactive: [3] 96 % of control | [4] 98 % of control | [5] 102 % of control

O=C(OCC1OC(OC2(COC(=O)c3ccccc3)OC(COC(=O)c3ccccc3)C(OC(=O)c3ccccc3)C2OC(=O)c2ccccc2)C(OC(=O)c2ccccc2)C(OC(=O)c2ccccc2)C1OC(=O)c1ccccc1)c1ccccc1 (configuration not stated)
inactive: [6] 100 % of control | [7] 100 % of control | [8] 102 % of control

CO[C@]12[C@@H](COC(=O)NCCO)C3=C(C(=O)C(C)=C(N)C3=O)N1C[C@@H]1[C@H]2N1C (some centres not stated)
inactive: dose: 12.5 mg/kg/injection, schedule: Q01DX009 (ip), vehicle: saline 112 % of control | dose: 50.0 mg/kg/injection, schedule: Q01DX009 (ip), vehicle: saline 119 % of control | [1] 114 % of control | [2] 116 % of control | [9] 112 % of control

CC(=O)N1CCN(C(C)=O)c2ccccc21
inactive: [10] 101 % of control | [11] 101 % of control | [12] 93 % of control

CNc1ccc(O)cc1
inactive: dose: 5.0 mg/kg/injection, schedule: Q01DX009 (ip), vehicle: saline sonified 101 % of control | dose: 5.0 mg/kg/injection, schedule: Q04DX003 (ip), vehicle: saline 91 % of control | dose: 10.0 mg/kg/injection, schedule: Q01DX009 (ip), vehicle: saline sonified 103 % of control | dose: 10.0 mg/kg/injection, schedule: Q04DX003 (ip), vehicle: saline 97 % of control | dose: 20.0 mg/kg/injection, schedule: Q01DX009 (ip), vehicle: saline sonified 104 % of control | dose: 20.0 mg/kg/injection, schedule: Q04DX003 (ip), vehicle: saline 101 % of control

O=C1C=C(c2ccccc2)C(c2ccccc2)C(c2ccccc2)C1 (configuration not stated)
inactive: [13] 93 % of control | [14] 93 % of control | [15] 96 % of control

CNc1ccc(C(=O)O)cc1C(F)(F)F
inactive: [16] 102 % of control | [17] 101 % of control | [18] 102 % of control

CCCC(CC)OC(=O)Nc1cccc2ccccc12 (configuration not stated)
inactive: [16] 100 % of control | [17] 102 % of control | [18] 100 % of control

CC1(C)CC([NH-])(C(=O)O)CC(C)(C)N1O.CC1(C)CC([NH-])(C(=O)O)CC(C)(C)N1O.[Zn+2]
inactive: dose: 12.5 mg/kg/injection, schedule: Q01DX009 (ip), vehicle: saline with Tween-80 96 % of control | [19] 96 % of control | [20] 96 % of control | [13] 93 % of control

O=C(O)Cc1ccc(Cl)c(Cl)c1
inactive: dose: 50.0 mg/kg/injection, schedule: Q04DX003 (ip), vehicle: other 97 % of control | dose: 100.0 mg/kg/injection, schedule: Q04DX003 (ip), vehicle: other 100 % of control | dose: 200.0 mg/kg/injection, schedule: Q04DX003 (ip), vehicle: other 96 % of control

Nc1nc(N)c(N=O)c(N)n1
inactive: [21] 98 % of control | [3] 103 % of control | [9] 97 % of control | [4] 97 % of control | [22] 100 % of control | [5] 102 % of control

O=C(O)CC1OCC=C2C[N+]3([O-])CCC45c6ccccc6NC4C1C2CC53 (configuration not stated)
inactive: dose: 75.0 mg/kg/injection, schedule: Q01DX001 (ip), vehicle: other 100 % of control | dose: 150.0 mg/kg/injection, schedule: Q01DX001 (ip), vehicle: other 98 % of control

CC(=O)OC(c1ccccc1)C(C)C(O)(C(F)(F)F)C(F)(F)F (configuration not stated)
inactive: [6] 98 % of control | [7] 87 % of control | [8] 95 % of control

CCCOC(=O)c1ccc(NC(=O)Nc2ccc(C(=O)OCC)cc2)cc1
inactive: dose: 25.0 mg/kg/injection, schedule: Q01DX001 (ip), vehicle: saline with Tween-80 96 % of control | [19] 88 % of control | dose: 25.0 mg/kg/injection, schedule: Q04DX002 (ip), vehicle: saline with Tween-80 92 % of control and 95 % of control | [23] 102 % of control | dose: 50.0 mg/kg/injection, schedule: Q01DX001 (ip), vehicle: saline with Tween-80 93 % of control | [20] 88 % of control and 94 % of control | dose: 50.0 mg/kg/injection, schedule: Q04DX002 (ip), vehicle: saline with Tween-80 92 % of control and 98 % of control | [24] 92 % of control | [6] 87 % of control and 93 % of control | [13] 91 % of control and 96 % of control | [10] 91 % of control and 94 % of control | [7] 86 % of control | dose: 200.0 mg/kg/injection, schedule: Q04DX002 (ip), vehicle: saline with Tween-80 90 % of control | [11] 86 % of control | dose: 400.0 mg/kg/injection, schedule: Q04DX002 (ip), vehicle: saline with Tween-80 90 % of control | [12] 88 % of control

ClC1CCC(Cl)C2CCC3C(Cl)CCC1[S+]23 (configuration not stated)
inactive: dose: 3.12 mg/kg/injection, schedule: Q01DX009 (ip), vehicle: Klucel (hydroxypropylcellulose) (HPC) 104 % of control | dose: 6.25 mg/kg/injection, schedule: Q01DX009 (ip), vehicle: Klucel (hydroxypropylcellulose) (HPC) 97 % of control | dose: 12.5 mg/kg/injection, schedule: Q01DX009 (ip), vehicle: Klucel (hydroxypropylcellulose) (HPC) 95 % of control

O=C(O)Cc1cccnc1
inactive: [21] 98 % of control | [9] 102 % of control | [22] 110 % of control

COc1cccc(C2Nc3cc(Cl)ccc3S2)c1O (configuration not stated)
inactive: dose: 75.0 mg/kg/injection, schedule: Q01DX009 (ip), vehicle: other 98 % of control | dose: 150.0 mg/kg/injection, schedule: Q01DX009 (ip), vehicle: other 96 % of control | dose: 300.0 mg/kg/injection, schedule: Q01DX009 (ip), vehicle: other 102 % of control

O=C(Nc1ccc(Cl)c(Cl)c1)Sc1ccc(Cl)cc1
inactive: [10] 105 % of control

Cc1cc(N2CCC(N3CCCC3)CC2)nc(/N=C(\N)Nc2ccc(Cl)c(Cl)c2)n1
inactive: dose: 12.5 mg/kg/injection, schedule: Q04DX003 (ip), vehicle: saline with Tween-80 98 % of control | [23] 101 % of control | [24] 86 % of control

Cc1c(Cl)ccc(Cl)c1Cl
inactive: dose: 100.0 mg/kg/injection, schedule: Q01DX009 (ip), vehicle: saline sonified 105 % of control | dose: 100.0 mg/kg/injection, schedule: Q04DX003 (ip), vehicle: saline sonified 104 % of control | dose: 200.0 mg/kg/injection, schedule: Q01DX009 (ip), vehicle: saline sonified 100 % of control | dose: 200.0 mg/kg/injection, schedule: Q04DX003 (ip), vehicle: saline sonified 101 % of control | dose: 400.0 mg/kg/injection, schedule: Q01DX009 (ip), vehicle: saline sonified 102 % of control | dose: 400.0 mg/kg/injection, schedule: Q04DX003 (ip), vehicle: saline sonified 106 % of control

COC(=O)c1ccc(OCc2ccccc2)c([N+](=O)[O-])c1
inactive: dose: 100.0 mg/kg/injection, schedule: Q01DX001 (ip), vehicle: saline sonified 98 % of control | [13] 105 % of control | dose: 200.0 mg/kg/injection, schedule: Q01DX001 (ip), vehicle: saline sonified 96 % of control | [14] 97 % of control | dose: 400.0 mg/kg/injection, schedule: Q01DX001 (ip), vehicle: saline sonified 95 % of control | [15] 105 % of control

Cc1ccc(S(=O)(=O)OC2CCSCC2)cc1
inactive: [16] 102 % of control | [17] 94 % of control | [18] 94 % of control
